Data: patent EP1464336A1, “Use of tryprostatin A for the reversal of cancer drug resistance” (Humboldt-Universität zu Berlin, priority 2003, dated 2004)

Tests used:
[1] = system: drug-sensitive and drug-resistant gastric and breast cancer cell lines; experiment: Cytotoxicity of the MDR modulators alone (SRB proliferation assay); type: cell-based, human
Method: (§1) Modulation of chemoresistance was tested using a proliferation assay based on sulforhodamine B (SRB), a protein-binding reagent (Skehan P et al., J Natl Cancer Inst 1990;82:1107-12), as described in Lage H et al., Int J Hyperthermia 2000;16:291-303; Lage H et al., FEBS Lett 2001;503:179-84; Lage H et al., FEBS Lett 2001;494:54-9. In each experiment, 350 cells per well were seeded in the presence or absence of TPS-A in 96-well plates in complete medium and allowed to attach overnight. Mitoxantrone or daunorubicin were added in a dilution series in triplicate wells. After 5 days, when unselected wells were still subconfluent, incubation was terminated by replacing the medium with 10 % trichloroacetic acid, followed by incubation at 4 °C for 1 h. After samples were washed 5 times with water and air-dried, 50 µl 0.4 % SRB (Sigma, St. Louis, MO) in 1 % acetic acid was added and samples were incubated for 10 min at room temperature. Unbound dye was eliminated by washing the plates 5 times with 1 % acetic acid. After air-drying and re-solubilisation of the protein-bound dye in 10 mM Tris-HCl (pH 8.0), absorbance was quantified at 562.5 nm. To determine the IC50-value, the absorbance difference of control cells without drug was set to be 100 %. Linear regression of data was done for the linear part of the curve, and IC50-values were calculated from multiple, at least three independent experiments for each cell line.
The cytotoxicity of the MDR modulators TPS-A and GF120918 on drug-sensitive and drug-resistant gastric and breast cancer cell lines was initially assessed.

[2] = system: gastric and breast carcinoma cell variants; experiment: Modulation of chemoresistance to mitoxantrone or daunorubicin (SRB proliferation assay, IC50/DMF); type: cell-based, human
Method: as §1
The cellular sensitivity to mitoxantrone and daunorubicin was assessed by determining the IC50 values without or with increasing concentrations of TPS-A or GF120918 as a positive control in the different cancer cell variants. Table 1 presents the data of TPS-A reversal of mitoxantrone and daunorubicin resistance in different gastric and breast carcinoma cell variants, respectively. […] In each case, the equation DMF=(IC50 (-CS))/(IC50 (+CS)) [formula] was used to calculate the dose modifying factor (DMF), comparing the IC50 values in the presence (+CS) or absence (-CS) of the corresponding chemosensitizer (CS) TPS-A or GF120918.

EPG85-257RDB cells = experiment: Modulation of chemoresistance to daunorubicin (SRB proliferation assay, IC50/DMF); type: cell-based, human; conditions: GF120918; classical MDR, P-gp-expressing cells (Table 2, Figure 3B)
Method: as §1, with “After samples were washed 5 times with water and air-dried, 50 µl 0.4 % SRB (Sigma, St. Louis, MO) in 1 % acetic acid was added and samples were incubated for 10 min at room temperature. Unbound dye was eliminated by washing the plates 5 times with 1 % acetic acid.” left out, “To determine the IC50-value, the absorbance difference of control cells without drug was set to be 100 %.” left out
The cellular sensitivity to mitoxantrone and daunorubicin was assessed by determining the IC50 values without or with increasing concentrations of TPS-A or GF120918 as a positive control in the different cancer cell variants. […]

[3] = system: BCRP-transfected cell variant MCF-7/BCRP clone 8; experiment: Mitoxantrone accumulation assay (flow cytometry); type: cell-based, human; conditions: 1 µM GF120918; compared to drug accumulation level in the untreated, parental control cell line (Fig 4B)
Method: (§2) Cellular mitoxantrone accumulation was determined according to the procedure described in Lage H et al., FEBS Lett 2001;503:179-84. Briefly, 4 x 10^5 cells were seeded out in 6-well plates 78 hours prior to the experiment. Incubation with mitoxantrone (0, 1,5 and 10 µg/ml) was performed for 60 minutes at 37°C and 70-80 % cellular confluence. For kinetics of intracellular enrichment of mitoxantrone, cells were exposed to 10 µg/ml mitoxantrone for 0, 5, 10 and 60 min. Cells were washed with ice-cold PBS, trypsinized and resuspended in 4 °C PBS at a concentration of 4 x 10^5 cells/ml. Intracellular fluorescence of mitoxantrone was determined by flow cytometry (Becton-Dickinson, San Jose, CA). The cells were excited at 480 nm and emission was measured at 630 nm. A minimum of 10^4 cells was analyzed for each sample. All assays were performed at least in three independent experiments, each time with triplicate wells.
(§3) To provide confirmation that the observed resensitization to mitoxantrone of BCRP-overexpressing cells was indeed the result of BCRP inhibition by TPS-A, a mitoxantrone accumulation assay was performed. The known so-called "multispecific" MDR modulator GF120918, inhibiting P-gp- and BCRP activity, was used as a positive control for P-gp- and BCRP antagonism.

BCRP = experiment: Mitoxantrone accumulation assay (flow cytometry); type: cell-based, human; conditions: human, probe mitoxantrone; 1 µM GF120918 (Fig 4); read-out: mitoxantrone accumulation inhibiting effect
Method: as §2, §3

MCF-7/AdrVp = experiment: Mitoxantrone accumulation assay (flow cytometry); type: cell-based, human; conditions: 1 µM GF120918
Method: as §2, §3

P-gp [4] = experiment: Mitoxantrone accumulation assay (flow cytometry); type: cell-based, human; conditions: human, EPG85-257RDB cells (P-gp-expressing, classical MDR variant), probe mitoxantrone; 1 µM GF120918 (Fig 4); read-out: inhibition of mitoxantrone pump activity
Method: as §2, §3

[5] = system: drug-sensitive, parental cell line MCF-7; experiment: Mitoxantrone accumulation assay (flow cytometry); type: cell-based, human; conditions: increasing modulator concentrations
Method: as §2, §3

[6] = system: parental, drug-sensitive gastric carcinoma cell variant EPG85-257P; experiment: Mitoxantrone accumulation assay (flow cytometry); type: cell-based, human; conditions: GF120918 (Fig 4)
Method: as §2, §3

[7] = system: BCRP overexpressing cells (EPG85-257RNOV); experiment: C6-NBD-PS outward translocation assay; type: cell-based, human; conditions: pretreatment with 10 µM inhibitor; 30 minutes at 37°C (Fig. 8)
Method: (§4) To measure redistribution of C6-NBD-PS from the cytoplasmic to the exoplasmic leaflet, labelling of the cytoplasmic leaflet is preconditional. Previously, we have introduced a method to achieve efficient labeling of the plasma membrane inner leaflet of the gastric carcinoma cell line EPG85-257 (Pohl, A., Lage, H., Müller, P., Pomorksi, T., and Herrmann. A. (2002) Biochem. J. 365, 259-268). Briefly, cells were preincubated with or without MDR inhibitors, labelled with 5 µM C6-NBD-PS, and incubated at 20°C for 30 minutes to allow inward movement of the NBD analogue. C6-NBD-PS remaining on the cell surface was extracted twice by incubation with 2% (w/v) BSA in mPBS for 10 minutes on ice. Before starting the outward translocation assay, the medium was removed, and cells were washed with ice-cold mPBS. For t=0', ice-cold medium containing 2% (w/v) BSA and 5 mM DFP ( = diisopropyl fluoro-phosphate) in mPBS with or without inhibitor was immediately added to the cell dish for 10 minutes. To measure C6-NBD-PS outward translocation, medium prewarmed to 37°C was added to the dish, and cells were incubated at 37°C for 30 minutes (t = 30'). Removal of the BSA-containing media and a second extraction with 2% BSA in mPBS for 10 minutes terminated incubations, followed by lipid analysis.
(§5) After the incubations, the second BSA back exchange medium was pooled with the first, and cells scraped into mPBS. For analysis of outward translocation and of metabolic conversion of C6-NBD-PS, lipids from both scraped cells and media were extracted with isopropanol/chloroform/(5.5:1, v/v) to prevent substantial loss into the aqueous phase. Samples were centrifuged at 780 g for 5 minutes, the supernatant transferred into new glass tubes and dried, dissolved in chloroform/methanol (1:1) and quantified spectroscopically. For C6-NBD-PC analysis, lipids from both cells and incubation media were extracted by the method of Bligh and Dyer (Bligh, E., and Dyer, W. (1959) Can. J Biochem. Physiol. 37, 911-917) using 20 mM acetic acid in the aqueous phase. After 2-D separation [I, chloroform/methanol/25% ammonium hydroxide (65:25:4, v/v); II, chloroform/acetone/methanol/acetic acid/water (10:4:2:2:1, v/v)] on thin layer chromatography plates, fluorescent lipid spots were visualized under ultraviolet light, scraped, and quantified as described before (Pomorski, T., Müller, P., Zimmermann, B., Burger, K., Devaux, P., and Herrmann, A. (1996) J. Cell Sci. 109, 687-698).

[8] = system: MDR1 Pgp overexpressing subline (EPG85-257RDB); experiment: C6-NBD-PS outward translocation assay; type: cell-based, human; conditions: 10 µM inhibitor; 30 minutes at 37°C (Fig. 8)
Method: as §4, §5

[9] = system: control cells (EPG85-257P); experiment: C6-NBD-PS outward translocation assay; type: cell-based, human; conditions: 10 µM inhibitor; 30 minutes at 37°C (Fig. 8)
Method: as §4, §5

P-gp [10] = molecular target: P-gp (Homo sapiens, UniProt P08183); conditions: literature (Hyafil F et al., Cancer Res 1993); cited from earlier work
Chain of P-gp (Homo sapiens, UniProt P08183) (P08183 whole entry): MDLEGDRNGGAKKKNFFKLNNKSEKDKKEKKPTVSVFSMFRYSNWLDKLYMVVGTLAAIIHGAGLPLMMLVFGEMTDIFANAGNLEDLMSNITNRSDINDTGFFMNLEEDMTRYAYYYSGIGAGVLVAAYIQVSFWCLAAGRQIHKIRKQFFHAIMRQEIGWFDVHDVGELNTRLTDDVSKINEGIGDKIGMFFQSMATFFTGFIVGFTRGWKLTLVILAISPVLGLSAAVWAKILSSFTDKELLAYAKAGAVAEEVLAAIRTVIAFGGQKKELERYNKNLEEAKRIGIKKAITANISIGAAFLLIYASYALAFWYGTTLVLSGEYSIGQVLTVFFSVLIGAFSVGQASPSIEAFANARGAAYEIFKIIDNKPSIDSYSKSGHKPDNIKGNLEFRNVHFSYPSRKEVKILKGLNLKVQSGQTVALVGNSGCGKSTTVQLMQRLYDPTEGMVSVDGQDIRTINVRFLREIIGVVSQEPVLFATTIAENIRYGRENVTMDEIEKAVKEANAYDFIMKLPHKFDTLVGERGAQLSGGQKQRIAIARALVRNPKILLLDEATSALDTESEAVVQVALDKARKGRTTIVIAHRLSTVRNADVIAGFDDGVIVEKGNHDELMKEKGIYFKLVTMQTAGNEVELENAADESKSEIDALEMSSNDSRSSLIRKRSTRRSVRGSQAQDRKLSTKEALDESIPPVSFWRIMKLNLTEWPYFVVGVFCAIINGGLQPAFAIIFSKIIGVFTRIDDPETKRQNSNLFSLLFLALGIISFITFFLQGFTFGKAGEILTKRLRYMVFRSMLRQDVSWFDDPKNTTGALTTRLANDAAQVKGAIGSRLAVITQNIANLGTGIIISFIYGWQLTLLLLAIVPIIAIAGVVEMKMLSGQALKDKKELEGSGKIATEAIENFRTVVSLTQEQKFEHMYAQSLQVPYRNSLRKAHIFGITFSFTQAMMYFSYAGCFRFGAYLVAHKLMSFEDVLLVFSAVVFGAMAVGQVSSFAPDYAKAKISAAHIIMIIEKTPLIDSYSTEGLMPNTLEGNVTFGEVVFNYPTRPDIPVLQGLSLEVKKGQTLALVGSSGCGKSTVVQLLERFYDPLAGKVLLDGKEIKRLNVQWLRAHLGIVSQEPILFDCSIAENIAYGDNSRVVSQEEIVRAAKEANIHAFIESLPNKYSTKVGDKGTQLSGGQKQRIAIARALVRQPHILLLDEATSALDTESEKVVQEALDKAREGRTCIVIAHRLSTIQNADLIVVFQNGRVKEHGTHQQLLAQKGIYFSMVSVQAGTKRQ

COc1cc2c(cc1OC)CN(CCc1ccc(NC(=O)c3cccc4c(=O)c5cccc(OC)c5[nH]c34)cc1)CC2 [GF120918, reference compound]
growth inhibitory effect ([1]; 1 µM GF120918 alone, any of the drug-sensitive or drug-resistant cancer cell lines tested): no growth inhibitory effect | cross-resistance to the MDR modulator ([1]; multidrug-resistant tumor cell lines): No evidence of cross-resistance | restoration of drug sensitivity (mitoxantrone resistance) ([2]; 1 µM GF120918, EPG85-257RNOV and EPG85-257RDB, same for MCF7/BCRP clone 8 and MCF-7/AdrVp): not sufficient to restore drug sensitivity completely | resensitization to mitoxantrone ([2]; GF120918, BCRP- and P-gp-expressing stomach and mamma carcinoma-derived cell lines (Table 2, Figure 3A)): dose-depending resensitization | effect on sensitivity to daunorubicin ([2]; GF120918, the other human gastric and breast cancer cell lines (not EPG85-257RDB)): no significant effect | sensitization to daunorubicin (EPG85-257RDB cells): considerable dose-depending sensitization | inhibition of the mitoxantrone pump activity [3]: completely | inhibition at 1 µM (BCRP): 80% | increase of drug accumulation with respect to control cells (MCF-7/AdrVp): 40% | inhibition at 1 µM (P-gp [4]): 75% | effect on drug accumulation [5]: only a weak dosage-depending effect | transporter inhibiting effect (mitoxantrone accumulation) [6]: very weak transporter inhibiting effect | amount of C6-NBD-PS in the BSA containing medium (outward translocation) [7]: sharp and highly significant decrease | PS analogue outward translocation (MDR1 Pgp lipid transport activity) [8]: significant reduction | PS transport (C6-NBD-PS outward translocation) [9]: did not affect PS transport significantly | concentration capable of restoring drug sensitivity (as low as) (P-gp [10]): 100 nM
